Test results published in patent publication US9844549B2, “2-aminothiazole derivative or salt thereof” (ASTELLAS PHARMA INC., priority 2014, dated 2017).
Where a name gives a salt, the structure may show the parent alone.

Assays:
anesthetized rats = assay: Effect on pelvic nerve stimulation-induced elevation of intravesical pressure in anesthetized rats; format: in vivo; conditions: Rattus norvegicus; 3 mg/kg intravenous; maximum effect within one hour; AUC, pre-treatment = 100%; SD female rats; read-out: Increase rate of intravesical pressure (% of pre)
Method: Test Example 3: Effect on Pelvic Nerve Stimulation-Induced Elevation of Intravesical Pressure in Anesthetized Rats
The effect of the Example compounds of the present invention in the pelvic nerve electrical stimulation-induced elevation of intravesical pressure using rats as an action of nerve stimulation-dependent bladder contraction in vivo was measured by the following method. That is, SD female rats (Japan SLC, Inc.) were used and its lower abdomen was dissected at the midline under pentobarbital anesthesia (50 mg/kg ip). After ligating and cutting the ureter on both sides, a cannula (PE-50) for measuring the intravesical pressure was inserted into the bladder from the external urethral opening and fixed by a clip. After injecting about 200 μL of saline through the cannula that had been inserted into the bladder, the other side was connected to a pressure transducer to measure the intravesical pressure. Under a stereoscopic microscope observation, the pelvic nerve in the vicinity of the bladder was peeled and an electrode for nerve stimulation (unique Medical) was placed. The abdominal cavity was filled with mineral oil (MP BIOMEDICALS). After placing in a post-operative stabilization period, the pelvic nerve was subjected to electrical stimulation (stimulation voltage: 10 V, stimulation frequency: 8 Hz, pulse width: 0.3 msec, and stimulation time: 10 seconds) to elicit the elevation of intravesical pressure, using an electrical stimulator (Nihon Kohden). By repeating the electrical stimulation at an interval of 2 minutes while adjusting the voltage, the voltage was adjusted to elicit about 50% to 70% elevation of intravesical pressure elicited at 10 V. Thereafter, by repeating the electrical stimulation at an interval of 10 minutes, the increase in the intravesical pressure by electrical stimulation was stabilized three times or more, and the test substance (an administration amount of 3 mg/kg) was then administered from the catheter detained in the vein at a volume of 1 mL/kg, thus measuring an effect of the elevation of the intravesical pressure of the test substance for 1 hour. The test substance was dissolved in water supplemented with 10% DMSO and 10% Cremophor.
The response was applied to a personal computer through a PowerLab (registered trademark) and analyzed by LabChart (registered trademark). The AUC of each elevation of the intravesical pressure was calculated, the intravesical pressure elevation rate (% of pre) after the treatment with the test substance was calculated by taking an average value of the values measured three times before the treatment with the test substance as 100%, and the maximum effect during a period within one hour after administration of the compound was considered as the effect of the test substance.

rat isolated bladder = assay: Effect on electrical field stimulation-induced contraction in rat isolated bladder; conditions: AUC of contraction, value before treatment = 100%, SD female rat bladder, read-out: Enhancement rate of extracted bladder contractions (% of pre)
Method: Test Example 2: Effect on Electrical Field Stimulation-Induced Contraction in Rat Isolated Bladder
As an effect on the nerve stimulation-dependent bladder contraction in in vitro, the effect of the Example compounds of the present invention in the electrical field stimulation-induced contraction of the rat isolated bladder was measured by the following method. That is, a bladder specimen having a width of about 2 mm and a length of about 10 mm in the longitudinal direction from the bladder isolated from a Sprague-Dawley (SD) female rat (Japan SLC, Inc.) was prepared. The prepared bladder specimen was suspended in an organ bath filled with 10 mL of a Krebs-Henseleite solution. The Krebs-Henseleite solution was aerated at 95% 02 and 5% CO2, and kept at 37° C. After carrying out stabilization at an initial tension of 1 g, the contraction was caused twice with 60 mM KCl. After stabilization of the specimen with a Krebs-Henseleite solution, the contraction was caused by carrying out electrical field stimulation at 20 V with an electrical stimulation device (Nihon Kohden) (a stimulation frequency of 8 Hz, a pulse width of 0.3 msec, and a stimulation time of 10 seconds). By repeating the transmural electrical stimulation at an interval of 2 minutes, a voltage was adjusted to obtain a contraction height of approximately 50% of the contractile response at 20 V. After the contraction by electrical field stimulation had been stabilized, 10 μL of the test substances dissolved in 100% DMSO in advance (final concentrations of 3 μM, 10 μM, and 30 μM) was added thereto. The test substances were cumulatively administered at the following concentrations after the low-concentration contractile response had been stabilized. The response was taken into a personal computer through a PowerLab (registered trademark) (AD Instruments, Inc.), and analyzed by LabChart (registered trademark) (AD Instruments, Inc.). When the area under the response (area under curve, AUC) in each contraction response was calculated and the value before treatment with the test substance was taken as 100%, the enhancement rate (% of pre) of the isolated bladder contractions after treatment with the test substance was calculated.

| SMILES | response vs control in vivo at 3 mg/kg (anesthetized rats) | activity at 10 µM (rat isolated bladder) |
| --- | --- | --- |
| C[C@@H]1CCCN1Cc1sc(Nc2cc(N3CCN(CCC(=O)O)CC3)ccn2)nc1-c1cc(F)cc(C(F)(F)F)c1 [Example 19] | 125% | 161% |
| Cc1nc(Nc2nc(-c3cc(F)cc(C(F)(F)F)c3)c(CN3CCC[C@H]3C)s2)cc(N2CCN(CCC(=O)O)CC2)n1 [Example 3, 3-(4-{6-[(4-[3-fluoro-5-(trifluoromethyl)phenyl]-5-{[(2R)-2-methylpyrrolidin-1-yl]methyl}-1,3-thiazol-2-yl)amino]-2-methylpyrimidin-4-yl}piperazin-1-yl)propanoic acid trihydrochloride] | 146% | 136% |
| CC1CC[C@@H](C)N1Cc1sc(Nc2ncnc(N3CCN(CCC(=O)O)CC3)c2F)nc1-c1cc(F)cc(C(F)(F)F)c1 (stereo in doubt) [Example 8, sodium 3-(4-{6-[(5-{[(2R,5R)-2,5-dimethylpyrrolidin-1-yl]methyl}-4-[3-fluoro-5-(trifluoromethyl)phenyl]-1,3-thiazol-2-yl)amino]-5-fluoropyrimidin-4-yl}piperazin-1-yl)propanoate] | 178% | 193% |
| C[C@@H]1CCCN1Cc1sc(Nc2ncnc(N3CCN(CCC(=O)O)CC3)c2F)nc1-c1ccc(Cl)c(C(F)(F)F)c1 [Example 9, 3-(4-{6-[(4-[4-chloro-3-(trifluoromethyl)phenyl]-5-{[(2R)-2-methylpyrrolidin-1-yl]methyl}-1,3-thiazol-2-yl)amino]-5-fluoropyrimidin-4-yl}piperazin-1-yl)propanoic acid trihydrochloride] | 200% | 187% |
| Cc1nc(Nc2nc(-c3cc(F)cc(C(F)(F)F)c3)c(CN3CCC[C@H]3C)s2)c(F)c(N2CCN(CCC(=O)O)CC2)n1 [Example 18] | 153% | 199% |
| C[C@@H]1CCCN1Cc1sc(Nc2ncnc(N3CCN(CCC(=O)O)CC3)c2F)nc1-c1cc(Cl)cc(C(F)(F)F)c1 [Example 11, 3-(4-{6-[(4-[3-chloro-5-(trifluoromethyl)phenyl]-5-{[(2R)-2-methylpyrrolidin-1-yl]methyl}-1,3-thiazol-2-yl)amino]-5-fluoropyrimidin-4-yl}piperazin-1-yl)propanoic acid trihydrochloride] | 181% | 219% |
| COc1c(Nc2nc(-c3cc(F)cc(C(F)(F)F)c3)c(CN3CCC[C@H]3C)s2)ncnc1N1CCN(CCC(=O)O)CC1 [Example 91] | 144% | 124% |
| CC[C@@H]1CCCN1Cc1sc(Nc2ncnc(N3CCC(OCC(=O)O)CC3)c2F)nc1-c1cc(Cl)cc(C(F)(F)F)c1 [Example 13, [(1-{6-[(4-[3-chloro-5-(trifluoromethyl)phenyl]-5-{[(2R)-2-ethylpyrrolidin-1-yl]methyl}-1,3-thiazol-2-yl)amino]-5-fluoropyrimidin-4-yl}piperidin-4-yl)oxy]acetic acid dihydrochloride] | 186% | 127% |
| COC[C@@H]1CN(c2ncnc(Nc3nc(-c4cc(F)cc(C(F)(F)F)c4)c(CN4CCC[C@H]4C)s3)c2F)CCN1CCC(=O)O [Example 10, 3-[(2S)-4-{5-fluoro-6-[(4-[3-fluoro-5-(trifluoromethyl)phenyl]-5-{[(2R)-2-methylpyrrolidin-1-yl]methyl}-1,3-thiazol-2-yl)amino]pyrimidin-4-yl}-2-(methoxymethyl)piperazin-1-yl]propanoic acid trihydrochloride] | 169% | 271% |
| C[C@@H]1CCCN1Cc1sc(Nc2ncnc(N3CCC(OCC(=O)O)CC3)c2F)nc1-c1cc(F)cc(C(F)(F)F)c1 [Example 12, [(1-{5-fluoro-6-[(4-[3-fluoro-5-(trifluoromethyl)phenyl]-5-{[(2R)-2-methylpyrrolidin-1-yl]methyl}-1,3-thiazol-2-yl)amino]pyrimidin-4-yl}piperidin-4-yl)oxy]acetic acid dihydrochloride] | 152% | 166% |
| Cc1nc(Nc2nc(-c3cc(F)cc(C(F)(F)F)c3)c(CN3[C@H](C)CC[C@H]3C)s2)c(F)c(N2CCN(CCC(=O)O)CC2)n1 [Example 4, sodium 3-(4-{6-[(5-{[(2R,5R)-2,5-dimethylpyrrolidin-1-yl]methyl}-4-[3-fluoro-5-(trifluoromethyl)phenyl]-1,3-thiazol-2-yl)amino]-5-fluoro-2-methylpyrimidin-4-yl}piperazin-1-yl)propanoate] | 178% | 127% |
| COC[C@@H]1CN(c2ncnc(Nc3nc(-c4ccc(Cl)c(C(F)(F)F)c4)c(CN4CCC[C@H]4C)s3)c2F)CCN1CCC(=O)O [Example 1, 3-[(2S)-4-{6-[(4-[4-chloro-3-(trifluoromethyl)phenyl]-5-{[(2R)-2-methylpyrrolidin-1-yl]methyl}-1,3-thiazol-2-yl)amino]-5-fluoropyrimidin-4-yl}-2-(methoxymethyl)piperazin-1-yl]propanoic acid trihydrochloride] | 197% | 120% |
| C[C@@H]1CCCN1Cc1sc(Nc2cc(N3CCN(CCC(=O)O)CC3)ncn2)nc1-c1cc(F)cc(C(F)(F)F)c1 [Example 14] | 121% | 169% |
| C[C@@H]1CCCN1Cc1sc(Nc2ncnc(N3CCN(CCC(=O)O)CC3)c2F)nc1-c1cc(F)cc(C(F)(F)F)c1 [Example 17] | 144% | 199% |
